# From US20100226980A1, “NOVEL TABLET BASED ON S-ADENOSYL-METHIONINE” (VETOQUINOL, priority 2009, published 2010)
# Assay: Pharmacokinetic tests on dogs
# Format: in vivo
# Procedure: In order to confirm the results obtained in vitro, pharmacokinetic tests were carried out on dogs.
compound,measurement,setting,value
"C[S+](CC[C@H](N)C(=O)O)C[C@H]1O[C@@H](n2cnc3c(N)ncnc32)[C@H](O)[C@@H]1O.Cc1ccc(S(=O)(=O)[O-])cc1 (stereo partly drawn) [SAMe, S-Adenosyl-Methionine Paratoluene Sulphonate]",absorption of SAMe,after administration of tablet,absorbed in the stomach as soon as it is administered
same,degradation of SAMe,after administration of tablet,not degraded
same,pharmacokinetic profiles of the different dogs,variability between animals,homogeneous and vary very little
